According to ChEMBL document CHEMBL1201862, “PubChem BioAssay data set” (2004):
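Step 1: Grow cells in 96-well plates. Step 2: Expose to compound for 48 hours at 5 concentrations. Step 3: Interpolate endpoints linearly; if unreached, use highest concentration. Here, GI50 denotes the concentration required for 50% inhibition of growth.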 The source made the active and inactive calls. No stated cut-off is given here; in the data, active = GI50 up to about 1.1 µM and inactive = higher.

Tests used:
Test in all cases: NCI tumour cell line growth inhibition, 48 h
SN12C = system: SN12C
BT-549 = system: BT-549
UACC-257 = system: UACC-257
OVCAR-4 = system: OVCAR-4
HCT-116 = system: HCT-116
EKVX = system: EKVX
786-0 = system: 786-0
OVCAR-5 = system: OVCAR-5
A549 = system: A549
K562 = system: K562
SR = system: SR
OVCAR-3 = system: OVCAR-3
UO-31 = system: UO-31
NCI-H23 = system: NCI-H23
SF-539 = system: SF-539
CCRF-CEM = system: CCRF-CEM
MDA-MB-435 = system: MDA-MB-435
NCI/ADR-RES = system: NCI/ADR-RES
MDA-N = system: MDA-N

| SMILES | GI50 (SN12C) | GI50 (BT-549) | GI50 (UACC-257) | GI50 (OVCAR-4) | GI50 (HCT-116) | GI50 (EKVX) | GI50 (786-0) | GI50 (OVCAR-5) | GI50 (A549) | GI50 (K562) | GI50 (SR) | GI50 (OVCAR-3) | GI50 (UO-31) | GI50 (NCI-H23) | GI50 (SF-539) | GI50 (CCRF-CEM) | GI50 (MDA-MB-435) | GI50 (NCI/ADR-RES) | GI50 (MDA-N) |
| --- | --- | --- | --- | --- | --- | --- | --- | --- | --- | --- | --- | --- | --- | --- | --- | --- | --- | --- | --- |
| COc1ccc(/C=C2\C(=O)N(C3OC(COC(C)=O)C(OC(C)=O)C(OC(C)=O)C3OC(C)=O)c3ccccc3N=C2N)cc1 (configuration not stated) | 36.9 µM (inactive) | 23.9 µM (inactive) | 24.5 µM (inactive) | 33.5 µM (inactive) | 19.7 µM (inactive) | 26.8 µM (inactive) | 17.5 µM (inactive) | 33.9 µM (inactive) | 29.2 µM (inactive) | 11.9 µM (inactive) | 5.37 µM (inactive) | 23.2 µM (inactive) | 32.4 µM (inactive) | 20 µM (inactive) | 9.06 µM (inactive) | 16.8 µM (inactive) | 4.65 µM (inactive) | 20.5 µM (inactive) | 4.48 µM (inactive) |
| Cc1nnc2sc(-c3ccc(-c4ccccc4Cl)o3)nn12 | 35.4 µM (inactive) | 24 µM (inactive) | 44.5 µM (inactive) | 31.8 µM (inactive) | 19.8 µM (inactive) | 33 µM (inactive) | 26.9 µM (inactive) | > 100 µM (inactive) | 34.8 µM (inactive) | 21.2 µM (inactive) | 19 µM (inactive) | 27 µM (inactive) | 33.7 µM (inactive) | 24.2 µM (inactive) | 19.7 µM (inactive) | 43.6 µM (inactive) | 18.9 µM (inactive) | 21.9 µM (inactive) | 17.9 µM (inactive) |
| C=CCCC1(CC(Sc2ccccc2)P(=O)(c2ccccc2)c2ccccc2)OCCO1 (configuration not stated) | > 10 µM (inactive) | > 10 µM (inactive) | > 10 µM (inactive) | > 10 µM (inactive) | > 10 µM (inactive) | > 10 µM (inactive) | > 10 µM (inactive) | > 10 µM (inactive) | > 10 µM (inactive) | > 10 µM (inactive) | > 10 µM (inactive) | > 10 µM (inactive) | > 10 µM (inactive) | > 10 µM (inactive) | > 10 µM (inactive) | > 10 µM (inactive) | > 10 µM (inactive) | > 10 µM (inactive) | > 10 µM (inactive) |
| O=[N+]([O-])c1c(F)c(F)c2c(c1F)Nc1ccccc1S2 | 3.38 µM (inactive) | 11 µM (inactive) | 1.49 µM (inactive) | 2.58 µM (inactive) | 2.47 µM (inactive) | 6.44 µM (inactive) | 8.24 µM (inactive) | 13 µM (inactive) | 19.2 µM (inactive) | 2.87 µM (inactive) | 2.62 µM (inactive) | 2.03 µM (inactive) | 18.2 µM (inactive) | 2.63 µM (inactive) | 20.6 µM (inactive) | 2.69 µM (inactive) | 4.81 µM (inactive) | 25.9 µM (inactive) | 4.42 µM (inactive) |
| O=C1Cc2c(-c3ccccc3)cc(-c3ccc4ccccc4c3)nc2-c2ccccc2N1 | 6.22 µM (inactive) | 27.4 µM (inactive) | 22.3 µM (inactive) | 2.9 µM (inactive) | 8.45 µM (inactive) | 7.16 µM (inactive) | 3.18 µM (inactive) | 24.7 µM (inactive) | 14.9 µM (inactive) | 2.39 µM (inactive) | 39.3 µM (inactive) | 8.05 µM (inactive) | 17.3 µM (inactive) | 6.4 µM (inactive) | 4.7 µM (inactive) | > 100 µM (inactive) | 17.2 µM (inactive) | 13.2 µM (inactive) | 8.53 µM (inactive) |
| Cc1cn([C@H]2C[C@H](O)[C@@H](CO)O2)c(=O)nc1N | > 100 µM (inactive) | > 100 µM (inactive) | > 100 µM (inactive) | > 100 µM (inactive) | > 100 µM (inactive) |  | > 100 µM (inactive) | > 100 µM (inactive) | > 100 µM (inactive) | > 100 µM (inactive) | > 100 µM (inactive) | > 100 µM (inactive) | > 100 µM (inactive) | > 100 µM (inactive) | > 100 µM (inactive) | > 100 µM (inactive) | > 100 µM (inactive) | > 100 µM (inactive) | > 100 µM (inactive) |
| CCn1c(=O)c2c3cc(O)ccc3oc2c2ccc(O)cc21 | 29.2 µM (inactive) | 17.4 µM (inactive) | 76.6 µM (inactive) | 34.8 µM (inactive) |  | 24.7 µM (inactive) | 57.7 µM (inactive) |  | 24.4 µM (inactive) | 25.9 µM (inactive) | 18.2 µM (inactive) | 29.9 µM (inactive) | 19.3 µM (inactive) | 41.3 µM (inactive) | 16.7 µM (inactive) | 21.1 µM (inactive) | 27 µM (inactive) | 37.8 µM (inactive) | 30 µM (inactive) |
| O=S(=O)(c1ccccc1)n1c(C(O)c2ccncc2)cc2ccccc21 (configuration not stated) | > 100 µM (inactive) | 45.4 µM (inactive) | 10.7 µM (inactive) | 31.8 µM (inactive) | 43.1 µM (inactive) | 38.5 µM (inactive) | 68.5 µM (inactive) | > 100 µM (inactive) | 31.3 µM (inactive) | 31.6 µM (inactive) | 38.5 µM (inactive) | 46.8 µM (inactive) | 17.3 µM (inactive) | 44.7 µM (inactive) | > 100 µM (inactive) | 35.6 µM (inactive) | 36.3 µM (inactive) | 35.2 µM (inactive) | 39.1 µM (inactive) |
| O=C1NC(N2CCOCC2)=N/C1=C\c1cccs1 | > 100 µM (inactive) | > 100 µM (inactive) | > 100 µM (inactive) | > 100 µM (inactive) | > 100 µM (inactive) | > 100 µM (inactive) | > 100 µM (inactive) | > 100 µM (inactive) | > 100 µM (inactive) |  | > 100 µM (inactive) | > 100 µM (inactive) | > 100 µM (inactive) | > 100 µM (inactive) | > 100 µM (inactive) | > 100 µM (inactive) | > 100 µM (inactive) | > 100 µM (inactive) | > 100 µM (inactive) |
| COC(=O)c1c(O)ccc2c1c1c(n2Cc2ccccc2)C(=O)c2ccccc2C1=O | 13.9 µM (inactive) | 16.6 µM (inactive) | 17.6 µM (inactive) | 12 µM (inactive) | 14.2 µM (inactive) | 20.6 µM (inactive) | 18.2 µM (inactive) | 20.9 µM (inactive) | 7.76 µM (inactive) | 11.8 µM (inactive) | 15.6 µM (inactive) | 16.7 µM (inactive) | 10.3 µM (inactive) | 15.3 µM (inactive) | 15.6 µM (inactive) | 15 µM (inactive) | 13 µM (inactive) | 12.6 µM (inactive) | 20.1 µM (inactive) |
| O=C(O)c1cc2c(cc1S(=O)(=O)O)C1C(C3C2C2(Cl)C(Cl)=C(Cl)C3(Cl)C2(Cl)Cl)C2(Cl)C(Cl)=C(Cl)C1(Cl)C2(Cl)Cl (configuration not stated) | 8.71 µM (inactive) | 67 µM (inactive) | 90.2 µM (inactive) | 38.7 µM (inactive) | 17.4 µM (inactive) | 30.2 µM (inactive) | 39.8 µM (inactive) | 23.3 µM (inactive) | 72.9 µM (inactive) | 34.3 µM (inactive) | 24.7 µM (inactive) | 22.9 µM (inactive) | 44.6 µM (inactive) | 26.4 µM (inactive) | 25.4 µM (inactive) | 0.173 µM (active) | 41.9 µM (inactive) | > 100 µM (inactive) | 31.4 µM (inactive) |
| CCCCN1C(=O)c2c(Br)sc(Br)c2C1=O | 34.5 µM (inactive) | 61.9 µM (inactive) | 30.4 µM (inactive) | 25.7 µM (inactive) | 24.9 µM (inactive) | 70.1 µM (inactive) | 37 µM (inactive) | 30.4 µM (inactive) | 25.8 µM (inactive) | 30.5 µM (inactive) | 21.2 µM (inactive) |  | 33.9 µM (inactive) | 44.3 µM (inactive) | 24.2 µM (inactive) | 26.3 µM (inactive) | 37.4 µM (inactive) | 30.9 µM (inactive) | 33 µM (inactive) |
| Cc1nc2c(-c3ccccc3)[nH]c(C)c2c(=O)o1 | > 100 µM (inactive) | 24.8 µM (inactive) | > 100 µM (inactive) | 70.1 µM (inactive) | 45.6 µM (inactive) | > 100 µM (inactive) | 61.8 µM (inactive) | > 100 µM (inactive) | 65.2 µM (inactive) | 40.1 µM (inactive) | > 100 µM (inactive) |  | 4.94 µM (inactive) | 57.7 µM (inactive) | 56.5 µM (inactive) | > 100 µM (inactive) | 46.2 µM (inactive) | > 100 µM (inactive) | 45.6 µM (inactive) |
| CC(C)(C)C1CCC2c3c([nH]c4ccccc34)C3C(=O)N(c4ccc5c(c4)C(=O)c4ccccc4C5=O)C(=O)C3C2C1 (configuration not stated) | > 100 µM (inactive) | > 100 µM (inactive) | > 100 µM (inactive) | > 100 µM (inactive) | > 100 µM (inactive) | > 100 µM (inactive) | > 100 µM (inactive) | > 100 µM (inactive) | > 100 µM (inactive) | > 100 µM (inactive) | > 100 µM (inactive) | > 100 µM (inactive) |  | > 100 µM (inactive) | > 100 µM (inactive) | > 100 µM (inactive) | > 100 µM (inactive) | > 100 µM (inactive) | > 100 µM (inactive) |
| CCOC(=O)c1nc2cc(F)c(F)cc2nc1NCc1cc(OC)c(OC)c(OC)c1 | > 100 µM (inactive) | > 100 µM (inactive) | > 100 µM (inactive) | > 100 µM (inactive) | > 100 µM (inactive) | > 100 µM (inactive) | 57.1 µM (inactive) | 54.2 µM (inactive) | > 100 µM (inactive) |  | > 100 µM (inactive) | > 100 µM (inactive) | 63.7 µM (inactive) | > 100 µM (inactive) | > 100 µM (inactive) | > 100 µM (inactive) | > 100 µM (inactive) | > 100 µM (inactive) | > 100 µM (inactive) |
